Data taken from US7655597B1, “Pesticide compositions including polymeric adjuvants” (priority 2009, dated 2010).

System: fire ants
Test: fire ant kill test in insecticide-coated mason jar (time to death of entire population)
Format: in vivo
Conditions: Table 1
Description: In this example a series of commercially available insecticides were tested at various dilution levels and with and without a preferred copolymer, namely the AVAIL® copolymer previously described (a 40%-60% w/w aqueous composition of a saturated sodium salt of a maleic anhydride/itaconic acid copolymer in water). In each set of test runs, the selected insecticide was tested with a population of fire ants in order to determine the time required to kill the entire population.
In particular, in each test run 20 ml of the respective liquid insecticide composition was added to a mason jar and swirled around the inside bottom thereof. The liquid was then poured off and the remainder was allowed to dry on the inner jar surface, creating substantially a monomeric dried layer. The outside neck surface of the jar was then coated in talc, and the open end of the jar was placed into a fire ant nest. The talc coating prevented the aggressive fire ants from climbing the outer surface of the jar. A population of fire ants was thus established in each jar, and the jar was then topped with an apertured mason jar cap. The time to death of all of the fire ants was then recorded.
In each case, the recommended concentration of insecticide was prepared (recorded as “1X”), followed by dilutions with water to create the diluted compositions. Where copolymer was used, the copolymer was added to the insecticide with gentle mixing, at a level of 30 ml per gallon. If desired, lesser amounts of copolymer could be used, e.g., 20 ml per gallon.
In another series of tests, insecticides were tested with various copolymers having different ratios of maleic anhydride and itaconic acid moieties, and at different pH levels. In particular, respective copolymeric compositions were prepared made up of polymaleic acid, a 1:3 weight ratio of maleic anhydride to itaconic acid, a 1:1 weight ratio of maleic anhydride to itaconic acid, a 3:1 weight ratio of maleic anhydride to itaconic acid, and a 7:1 weight ratio of maleic anhydride to itaconic acid. […]

[1] = insecticide at 1X (recommended concentration), time to death of all fire ants

In the case of `CCOC(=O)CC(SP(=S)(OC)OC)C(=O)OCC` (stereo not drawn) [malathion, 2-(dimethoxyphosphinothioylthio) butanedioic acid diethyl ester], the “TIME TO DEATH” value [1] is reported as 1 min.

`CC1(C)C(C=C(Cl)Cl)C1C(=O)OCc1cccc(Oc2ccccc2)c1` (stereo not drawn) [permethrin, (3-phenoxyphenyl)methyl 3-(2,2-dichloroethenyl)-2,2-dimethyl-cyclopropane-1-carboxylate] was tested, and the “TIME TO DEATH” value (insecticide at 1/3X dilution) was 5 min and the “TIME TO DEATH” value [1] was 5 min.
